Species on record: Rattus norvegicus
Test: Open TG-GATES - Regimen: Daily Repeat
Assay type: toxicity, organism-based, Sprague-Dawley
Design: regimen Daily Repeat, gender Male, age 6 weeks
Conditions: in vivo, po, 30 mg/kg, route gavage, dose level High; for APTT / Bas / Eos / Fbg / Hb / Ht / Lym / MCH / MCHC / Mono / Neu / Plat / RBC / Ret: tissue Blood; for KIDNEY_L / KIDNEY_R / KIDNEY_TOTAL: tissue Kidney; for LIVER: tissue Liver; for ALP / ALT / AST / BUN / CRE / Ca / Cl / DBIL / GLC / IP / K / LDH / Na / PL / RALB / TBIL / TC / TG / TP / gamma-GTP: tissue Plasma

## O=C(CCCN1CCC(O)(c2ccc(Cl)cc2)CC1)c1ccc(F)cc1 [HALOPERIDOL]
72 h, time 3 day
  TERMINAL_BW: 179.6 g
  APTT: 15.7 s
  Bas: 0%
  Eos: 1%
  Fbg: 192.8 mg/dL
  Hb: 15.9 g/dL
  Ht: 47.3%
  Lym: 83.4%
  MCH: 21.2 pg
  MCHC: 33.6%
  Mono: 5%
  Neu: 10.6%
  Plat: 127.3 x10_4/uL
  RBC: 751.8 x10_4/ul
  Ret: 2.4%
  KIDNEY_L: 0.8 g
  KIDNEY_R: 0.9 g
  KIDNEY_TOTAL: 1.7 g
  LIVER: 7.7 g
  ALP: 686.4 IU/L
  ALT: 29.4 IU/L
  AST: 62 IU/L
  BUN: 28.2 mg/dL
  CRE: 0.6 mg/dL
  Ca: 11.2 mg/dL
  Cl: 108.6 meq/L
  DBIL: 0.002 mg/dL
  GLC: 162.2 mg/dL
  IP: 8.5 mg/dL
  K: 4.7 meq/L
  LDH: 176.8 IU/L
  Na: 142.2 meq/L
  PL: 159.6 mg/dL
  RALB: 4.4 g/dL
  TBIL: 0.2 mg/dL
  TC: 88.2 mg/dL
  TG: 80.8 mg/dL
  TP: 6.2 g/dL
  gamma-GTP: 1.2 IU/L
[…], time 7 day
  TERMINAL_BW: 213.8 g
  APTT: 16.7 s
  Bas: 0%
  Eos: 0.4%
  Fbg: 189.6 mg/dL
  Hb: 15.4 g/dL
  Ht: 46.2%
  Lym: 82%
  MCH: 21 pg
  MCHC: 33.4%
  Mono: 6.8%
  Neu: 10.8%
  Plat: 89.5 x10_4/uL
  RBC: 735.6 x10_4/ul
  Ret: 2.5%
  KIDNEY_L: 0.9 g
  KIDNEY_R: 0.9 g
  KIDNEY_TOTAL: 1.8 g
  LIVER: 10.3 g
  ALP: 1009 IU/L
  ALT: 38.8 IU/L
  AST: 67.2 IU/L
  BUN: 25.4 mg/dL
  CRE: 0.5 mg/dL
  Ca: 11.8 mg/dL
  Cl: 106 meq/L
  DBIL: 0.008 mg/dL
  GLC: 164.2 mg/dL
  IP: 7.6 mg/dL
  K: 4.6 meq/L
  LDH: 154.4 IU/L
  Na: 140 meq/L
  PL: 175.6 mg/dL
  RALB: 4.1 g/dL
  TBIL: 0.2 mg/dL
  TC: 77.6 mg/dL
  TG: 113.6 mg/dL
  TP: 6.1 g/dL
  gamma-GTP: 1.6 IU/L
[…], time 14 day
  TERMINAL_BW: 254.9 g
  APTT: 15.9 s
  Bas: 0%
  Eos: 0.4%
  Fbg: 195.2 mg/dL
  Hb: 15.4 g/dL
  Ht: 46.4%
  Lym: 84.6%
  MCH: 20 pg
  MCHC: 33.3%
  Mono: 3.4%
  Neu: 11.6%
  Plat: 94.6 x10_4/uL
  RBC: 773.4 x10_4/ul
  Ret: 2.9%
  KIDNEY_L: 1 g
  KIDNEY_R: 1.1 g
  KIDNEY_TOTAL: 2.1 g
  LIVER: 10.8 g
  ALP: 689.4 IU/L
  ALT: 30.2 IU/L
  AST: 65 IU/L
  BUN: 24 mg/dL
  CRE: 0.5 mg/dL
  Ca: 11 mg/dL
  Cl: 105.6 meq/L
  DBIL: 0.012 mg/dL
  GLC: 179.4 mg/dL
  IP: 7.8 mg/dL
  K: 4.7 meq/L
  LDH: 178.6 IU/L
  Na: 138.8 meq/L
  PL: 162.4 mg/dL
  RALB: 3.9 g/dL
  TBIL: 0.3 mg/dL
  TC: 76.2 mg/dL
  TG: 107.4 mg/dL
  TP: 6.1 g/dL
  gamma-GTP: 1.2 IU/L
[…], time 28 day
  TERMINAL_BW: 329.7 g
  APTT: 16.7 s
  Bas: 0%
  Eos: 0.6%
  Fbg: 210.2 mg/dL
  Hb: 15.2 g/dL
  Ht: 45.1%
  Lym: 84.4%
  MCH: 19.4 pg
  MCHC: 33.6%
  Mono: 3.6%
  Neu: 11.4%
  Plat: 96.5 x10_4/uL
  RBC: 782.8 x10_4/ul
  Ret: 2.6%
  KIDNEY_L: 1.2 g
  KIDNEY_R: 1.2 g
  KIDNEY_TOTAL: 2.4 g
  LIVER: 12.8 g
  ALP: 528.8 IU/L
  ALT: 31.6 IU/L
  AST: 65.4 IU/L
  BUN: 25.6 mg/dL
  CRE: 0.5 mg/dL
  Ca: 11.1 mg/dL
  Cl: 107 meq/L
  DBIL: 0.076 mg/dL
  GLC: 177.8 mg/dL
  IP: 7.6 mg/dL
  K: 4.7 meq/L
  LDH: 138.6 IU/L
  Na: 140.2 meq/L
  PL: 148.6 mg/dL
  RALB: 3.9 g/dL
  TBIL: 0.2 mg/dL
  TC: 67 mg/dL
  TG: 136.8 mg/dL
  TP: 6.3 g/dL
  gamma-GTP: 2.2 IU/L

— ChEMBL document CHEMBL3885861, “Open TG-GATES”
